Reference: patent US12018021B2 (UCB Biopharma SRL, priority 2018, dated 2024)

Biological target: IgE-Tb / FcεRIα-Y131A-AF488 (Homo sapiens, UniProt P01854)
Test: IgE-Tb / FcεRIα-Y131A-AF488 FRET assay (protocol for examples 1 to 233)
Assay type: binding
Conditions: examples 1 to 233: 5 nM IgE-Tb, 25 nM FcεRIα-Y131A-AF488, incubated 2 hours at room temperature; read-out: Y131A FRET IC50 range
Protocol: For examples 1 to 233, the assay was conducted according to the following: Each assay reaction was conducted in a volume of 25 μl in a 384-well half-volume plate. 10 point compound serial dilutions (3-fold) were generated in DMSO at a concentration of ×50 that of the final assay concentration (FAC). Compound solutions were then prepared by IgE-Tb diluting 10-fold in assay buffer. For the assay, 5 μl of diluted compound was added to 10 μl of, followed by addition of 10 μl FcεRIα-Y131A-AF488. FRET reagents FACs were 5 nM IgE-Tb, 25 nM FcεRIα-Y131A-AF488. Usually the top FAC of compound in the assay was 10 μM. The final DMSO concentration was 2%. The minimum signal (MIN) was measured by adding 5l unlabelled FcεRIα at 1 μM (FAC=200 nM) to the FRET reagents. The maximum FRET signal (MAX) was measured in wells containing FRET reagents but no compound. The assay was incubated for 2 hours at room temperature, protected from light and evaporation, and with gentle agitation.
Measurement of FRET for each well was carried out by exciting at 330 nm and measuring emission at 495/520 nm using an Envision plate reader (Perkin Elmer). FRET ratio was calculated as follows: Emission at 520/Emission at 495×1000.
The FRET ratio was used for the data analysis.
Z′ was calculated as follows (σ=standard deviation and μ=mean): 1−((3×σMAX)+(3×σMIN))/(μMAX−μMIN)
Z′ above 0.5 was considered a good assay.
Background signal (MIN) was subtracted from all wells. Using the background subtracted values, the percent inhibition by compound in each test-well was calculated as follows: 100−Test-well FRET ratio/MAX FRET ratio×100.
Percent inhibition was plotted against compound concentration. IC50 values for each compound were determined using four parameter logistic fit model using the XLFIT5 software package.

IgE-Tb / FcεRIα-Y131A-AF488, sequence (P01854 1-427 limits assumed, stated change not applied): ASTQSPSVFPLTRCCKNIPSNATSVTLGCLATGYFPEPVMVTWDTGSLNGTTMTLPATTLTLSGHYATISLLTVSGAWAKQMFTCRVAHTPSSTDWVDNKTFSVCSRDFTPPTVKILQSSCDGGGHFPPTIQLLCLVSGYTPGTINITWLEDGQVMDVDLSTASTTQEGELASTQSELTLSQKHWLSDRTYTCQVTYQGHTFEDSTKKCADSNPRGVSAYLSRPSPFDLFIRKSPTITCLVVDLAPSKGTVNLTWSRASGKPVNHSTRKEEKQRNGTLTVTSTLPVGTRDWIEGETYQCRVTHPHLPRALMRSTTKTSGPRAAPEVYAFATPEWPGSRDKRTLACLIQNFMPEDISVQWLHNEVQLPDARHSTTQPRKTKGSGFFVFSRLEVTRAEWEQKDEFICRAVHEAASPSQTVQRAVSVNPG

| Structure (SMILES) | IC50 [nM] |
| --- | --- |
| O=C(NCC1CC1)c1c(NC(=O)C2CC2)sc2c1CN(CCc1ccccc1)CC2 [Example 11, 2-(Cyclopropanecarbonylamino)-N-(cyclopropylmethyl)-5-(2-phenylethyl)-6,7-dihydro-4H-thieno[3,2-c]pyridine-3-carboxamide] | 10000 to 50000 |
| COC(=O)CN1CCc2sc(NC(=O)C3CC3)c(C(=O)NCC3CC3)c2C1 [Example 12, Methyl 2-[2-(cyclopropanecarbonylamino)-3-(cyclopropylmethylcarbamoyl)-6,7-dihydro-4H-thieno[3,2-c]pyridin-5-yl]acetate] | 10000 to 50000 |
| O=C(Nc1sc2c(c1S(=O)(=O)NCC1CC1)CCCC2)C1CC1 [Example 15, N-[3-(Cyclopropylmethylsulfamoyl)-4,5,6,7-tetrahydrobenzothiophen-2-yl]cyclopropanecarboxamide] | < 1000 |
| CCCNS(=O)(=O)c1c(NC(=O)C2CC2)sc2c1CCCC2 [Example 16, N-[3-(Propylsulfamoyl)-4,5,6,7-tetrahydrobenzothiophen-2-yl]cyclopropanecarboxamide] | < 1000 |
| CC(C)CNS(=O)(=O)c1c(NC(=O)C2CC2)sc2c1CCCC2 [Example 17, N-[3-(Isobutylsulfamoyl)-4,5,6,7-tetrahydrobenzothiophen-2-yl]cyclopropanecarboxamide] | < 1000 |
| CC(C)(O)CNS(=O)(=O)c1c(NC(=O)C2CC2)sc2c1CCCC2 [Example 18, N-[3-[(2-Hydroxy-2-methyl-propyl)sulfamoyl]-4,5,6,7-tetrahydrobenzothiophen-2-yl]cyclopropanecarboxamide] | 1000 to 10000 |
| CC(O)CNS(=O)(=O)c1c(NC(=O)C2CC2)sc2c1CCCC2 (stereo not drawn) [Example 19, N-[3-(2-Hydroxypropylsulfamoyl)-4,5,6,7-tetrahydrobenzothiophen-2-yl]cyclopropanecarboxamide] | < 1000 |
| O=C(Nc1sc2c(c1S(=O)(=O)N1CCCC1)CCCC2)C1CC1 [Example 20, N-(3-Pyrrolidin-1-ylsulfonyl-4,5,6,7-tetrahydrobenzothiophen-2-yl)cyclopropanecarboxamide] | 1000 to 10000 |
| O=C(Nc1sc2c(c1S(=O)(=O)NC1CC(F)C1)CCCC2)C1CC1 (stereo not drawn) [Example 21, N-[3-[(3-Fluorocyclobutyl)sulfamoyl]-4,5,6,7-tetrahydrobenzothiophen-2-yl]cyclopropanecarboxamide] | < 1000 |
| CCCCS(=O)(=O)c1c(NC(=O)C2CC2)sc2c1CCCC2 [Example 22, N-(3-Butylsulfonyl-4,5,6,7-tetrahydrobenzothiophen-2-yl)cyclopropanecarboxamide] | 1000 to 10000 |
| CC(C)CNS(=O)(=O)c1c(NC(=O)C2CC2)sc2c1CC(Nc1ncccn1)CC2 (stereo not drawn) [Example 23, N-[3-(Isobutylsulfamoyl)-5-(pyrimidin-2-ylamino)-4,5,6,7-tetrahydrobenzothiophen-2-yl]cyclopropanecarboxamide] | < 1000 |
| CC(C)CNS(=O)(=O)c1c(NC(=O)C2CC2)sc2c1CC(NS(C)(=O)=O)CC2 (stereo not drawn) [Example 24, N-[3-(Isobutylsulfamoyl)-5-(methanesulfonamido)-4,5,6,7-tetrahydrobenzothiophen-2-yl]cyclopropanecarboxamide] | < 1000 |
| CCCNS(=O)(=O)c1c(NC(=O)C2CC2)sc2c1CC(NC(=S)Nc1ccc(OC)cc1)CC2 (stereo not drawn) [Example 25, N-[5-[(4-Methoxyphenyl)carbamothioylamino]-3-(propylsulfamoyl)-4,5,6,7-tetrahydrobenzothiophen-2-yl]cyclopropanecarboxamide] | < 1000 |
| CCCNS(=O)(=O)c1c(NC(=O)C2CC2)sc2c1CC(NC(=O)Nc1ccc(OC)cc1)CC2 (stereo not drawn) [Example 26, N-[5-[(4-Methoxyphenyl)carbamoylamino]-3-(propylsulfamoyl)-4,5,6,7-tetrahydrobenzothiophen-2-yl]cyclopropanecarboxamide] | < 1000 |
| CCNC(=O)C1CCCc2c1sc(NC(=O)C1CC1)c2S(=O)(=O)NCC(C)C (stereo not drawn) [Example 27, 2-(Cyclopropanecarbonylamino)-N-ethyl-3-(isobutylsulfamoyl)-4,5,6,7-tetrahydrobenzothiophene-7-carboxamide] | 1000 to 10000 |
| CCNC(=O)C1CCc2sc(NC(=O)C3CC3)c(S(=O)(=O)NCC(C)C)c2C1 (stereo not drawn) [Example 28, 2-(Cyclopropanecarbonylamino)-N-ethyl-3-(isobutylsulfamoyl)-4,5,6,7-tetrahydrobenzothiophene-5-carboxamide] | < 1000 |
| CCCC[S+]([O-])c1c(NC(=O)C2CC2)sc2c1CCCC2 (stereo not drawn) [Example 29, N-(3-Butylsulfinyl-4,5,6,7-tetrahydrobenzothiophen-2-yl)cyclopropanecarboxamide] | 1000 to 10000 |
| Cc1ccc(NC(=NC#N)NC2CCc3sc(NC(=O)C4CC4)c(S(=O)(=O)NCC4CC4)c3C2)cc1 (stereo not drawn) [Example 30, N-[5-[[N′-Cyano-N-(p-tolyl)carbamimidoyl]amino]-3-(cyclopropylmethylsulfamoyl)-4,5,6,7-tetrahydrobenzothiophen-2-yl]cyclopropanecarboxamide] | < 1000 |
| CCNC(=NC#N)NC1CCc2sc(NC(=O)C3CC3)c(S(=O)(=O)NCC3CC3)c2C1 (stereo not drawn) [Example 31, N-[5-[[N′-Cyano-N-ethyl-carbamimidoyl]amino]-3-(cyclopropylmethylsulfamoyl)-4,5,6,7-tetrahydrobenzothiophen-2-yl]cyclopropanecarboxamide] | < 1000 |
| O=C1NCc2cc(NC(=O)C3CCc4sc(NC(=O)C5CC5)c(S(=O)(=O)NCC5CC5)c4C3)ccc21 (stereo not drawn) [Example 32, 2-(Cyclopropanecarbonylamino)-3-(cyclopropylmethylsulfamoyl)-N-(1-oxoisoindolin-5-yl)-4,5,6,7-tetrahydrobenzothiophene-5-carboxamide] | < 1000 |
| NS(=O)(=O)c1cccc(NC(=O)C2CCc3sc(NC(=O)C4CC4)c(S(=O)(=O)NCC4CC4)c3C2)c1 (stereo not drawn) [Example 33, 2-(Cyclopropanecarbonylamino)-3-(cyclopropylmethylsulfamoyl)-N-(3-sulfamoylphenyl)-4,5,6,7-tetrahydrobenzothiophene-5-carboxamide] | < 1000 |
| CS(=O)(=O)c1cccc(NC(=O)C2CCc3sc(NC(=O)C4CC4)c(S(=O)(=O)NCC4CC4)c3C2)c1 (stereo not drawn) [Example 34, 2-(Cyclopropanecarbonylamino)-3-(cyclopropylmethylsulfamoyl)-N-(3-methylsulfonylphenyl)-4,5,6,7-tetrahydrobenzothiophene-5-carboxamide] | < 1000 |
| O=C(Nc1cccc(-c2ccno2)c1)C1CCc2sc(NC(=O)C3CC3)c(S(=O)(=O)NCC3CC3)c2C1 (stereo not drawn) [Example 35, 2-(Cyclopropanecarbonylamino)-3-(cyclopropylmethylsulfamoyl)-N-(3-isoxazol-5-ylphenyl)-4,5,6,7-tetrahydrobenzothiophene-5-carboxamide] | < 1000 |
| CCOc1c(NC2CCc3sc(NC(=O)C4CC4)c(S(=O)(=O)NCC4CC4)c3C2)c(=O)c1=O (stereo not drawn) [Example 36, N-[3-(Cyclopropylmethylsulfamoyl)-5-[(2-ethoxy-3,4-dioxo-cyclobuten-1-yl)amino]-4,5,6,7-tetrahydrobenzothiophen-2-yl]cyclopropanecarboxamide] | < 1000 |
| CCNc1c(NC2CCc3sc(NC(=O)C4CC4)c(S(=O)(=O)NCC4CC4)c3C2)c(=O)c1=O (stereo not drawn) [Example 37, N-[3-(Cyclopropylmethylsulfamoyl)-5-[[2-(ethylamino)-3,4-dioxo-cyclobuten-1-yl]amino]-4,5,6,7-tetrahydrobenzothiophen-2-yl]cyclopropanecarboxamide] | < 1000 |
| CCCCS(=N)(=O)c1c(NC(=O)C2CC2)sc2c1CCCC2 (stereo not drawn) [Example 38, N-[3-(Butylsulfonimidoyl)-4,5,6,7-tetrahydrobenzothiophen-2-yl]cyclopropanecarboxamide] | 1000 to 10000 |
| CCOC(=O)C1CCc2sc(NC(=O)C3CC3)c(C(=O)NCC3CC3)c2C1 (stereo not drawn) [Example 39, Ethyl 2-(cyclopropanecarbonylamino)-3-(cyclopropylmethylcarbamoyl)-4,5,6,7-tetrahydrobenzothiophene-5-carboxylate] | 1000 to 10000 |
| O=C(NCC1CC1)c1c(NC(=O)C2CC2)sc2c1CC(C(=O)O)CC2 (stereo not drawn) [Example 40, 2-(Cyclopropanecarbonylamino)-3-(cyclopropylmethylcarbamoyl)-4,5,6,7-tetrahydrobenzothiophene-5-carboxylic acid] | 10000 to 50000 |
| O=C1NCc2cc(NC(=O)C3CCc4sc(NC(=O)C5CC5)c(C(=O)NCC5CC5)c4C3)ccc21 (stereo not drawn) [Example 41, 2-(Cyclopropanecarbonylamino)-N3-(cyclopropylmethyl)-N5-(1-oxoisoindolin-5-yl)-4,5,6,7-tetrahydrobenzothiophene-3,5-dicarboxamide] | < 1000 |
| O=C1CC(c2cccc(NC(=O)C3CCc4sc(NC(=O)C5CC5)c(C(=O)NCC5CC5)c4C3)c2)CN1 (stereo not drawn) [Example 42, 2-(Cyclopropanecarbonylamino)-N3-(cyclopropylmethyl)-N5-[3-(5-oxopyrrolidin-3-yl)phenyl]-4,5,6,7-tetrahydrobenzothiophene-3,5-dicarboxamide] | < 1000 |
